We go through three compounds from patent publication US20250197388A1, “COMPOUNDS, PHARMACEUTICAL COMPOSITIONS AND METHODS FOR TREATING INFLAMMATORY BOWEL DISEASE” (FLAGSHIP PIONEERING INNOVATIONS VI, LLC, priority 2022, published 2025).

For data set [1], the system named is R848-stimulated monocyte-derived dendritic cells. The data set is described as follows: MoDC assay, R848-stimulated pro-inflammatory cytokines. Type of data set: cell-based, human. From the text: (§1) Monocyte derived DC (MoDC) were differentiated from healthy human donor derived CD14+ monocytes. Commercially available freshly prepared Leukopaks were obtained from healthy blood donor and kept refrigerated on ice before spin centrifuged and the pelleted cells are rinsed and resuspended with MACS buffer (Miltenyi Biotec). Next, CD14+ monocytes were purified using MultiMACS™ Cell24 Separator-Plus instrumentation and reagents according to the manufacturer (Miltenyi Biotec) instructions. The resulting purified CD14^+ cell fraction was washed, enumerated, and subsequently cryopreserved for later use. At the experiment first day cryopreserved CD14′ cells were thawed, rinsed with culture media, and then resuspended in culture media principally composed of RPMI (Invitrogen) supplemented with 10% v/v heat inactivated FBS. For generation of MoDC, these CD14^+ cells were enumerated and seeded into 75 cm^2 tissue culture flasks in 30 mL of culture media supplemented with GM-CSF (40-100 ng/mL) and IL-4 (25 ng/mL). Every other day, half of the culture media was replaced with fresh media (containing the same cytokine supplementation) and after 6-7 days of culture, fully differentiated and matured MoDC were obtained as confirmed by conventional Immuno-phenotype markers (levels of expression or absence of surface CD80, CD83, CD86, CD209, HLA-DR, CD14 & CD64) that were verified by flow-cytometry. Fully differentiated (mature) MoDCs, were seeded into 96 flat-well plates and incubated with a various concentration of the compound described herein, or with control solution (DMSO), or with the pharmacologic inhibitors Cyclosporin-A (CsA) and BAY 61-3606 (which is a known inhibitor of Syk kinase) for 6 hours. Next, the MoDC culture well were added with Dectin-1(CLEC7a1)-ligand (Zymosan at 5 μg/mL), or the Toll-like receptor agonist R848, and further incubated for 18-20 hours. After incubation concluded, culture supernatants were collected, and the levels of inflammatory cytokines and chemokines was measured in a triplicate setting for each condition by Luminex® multiplex assay (FIG. 2) or by ELISA (FIG. 3).

A further data set deals with T1, Dectin-1b (Homo sapiens, UniProt Q9BXN2).
T1 construct: host or cells: HEK-Blue Dectin-1b reporter cells (HEK293-derived)
T1 sequence (Q9BXN2 1-201 isoform Q9BXN2-2): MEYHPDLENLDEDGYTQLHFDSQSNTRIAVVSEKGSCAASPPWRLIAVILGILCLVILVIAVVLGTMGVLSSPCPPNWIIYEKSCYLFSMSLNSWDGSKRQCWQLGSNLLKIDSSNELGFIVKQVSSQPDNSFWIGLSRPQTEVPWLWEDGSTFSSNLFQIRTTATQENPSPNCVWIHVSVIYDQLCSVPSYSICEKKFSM
The data set is described as follows: Dectin-1 assay, HEK-Blue Dectin-1b SEAP reporter cells stimulated with beta-glucan peptide (BGP). Type of data set: cell-based. The conditions noted are these: for Activity: HEK-Blue Dectin-1b cells, compounds at 1, 10 or 30 μM for 6 hours, then BGP 30 μg/mL 16-18 hours, SEAP adjusted by cell viability. The method, then:
Compounds described herein are added to mammalian cells for bioactivity assessment. The HEK-Blue Dectin-1b cells line (InVivoGen) releases a reporter protein (secreted embryonic alkaline phosphatase, SEAP) to the culture supernatant in response to Dectin-1 activation. HEK-Blue reporter cells were grown in DMEM culture media with 10% decomplemented fetal calf serum (InvivoGen, 1% Pen/Strep antibiotic (InvivoGen), 0.2% Normocin antibiotic (InvivoGen). On the day prior to the assay, cells were seeded in a 96 flat-bottom well plate at 50,000 cells/well and further incubated for 20 hours. On the day of the assay cells were incubated with 1 μM, 10 μM or 30 μM of the compounds described herein or with 1 μM of the SYKi IV Dectin-1b Inhibitor (Millipore) or with DMSO (vehicle control) for 6 hours, followed by the addition of beta-glucan peptide (BGP, a Dectin-1 ligand at 30 μg/mL) and incubation for 16-18 hours. After incubation was concluded, the cultures supernatants were collected and Dectin-1 related activity was assessed by measurement of the SEAP-reporter protein presence, using Quanti-Blue assay (Invivogen) and these values were adjusted by the Cell Viability levels that was assessed using the Cell-Titer-Glo2 Reagent (Promega).
Results represent cell number adjusted SEAP levels in a triplicate setting for each condition and cell numbers and viability corrections reflected less than 5% corrections. See, e.g., FIG. 1 for compound A-3.

Data set [2] deals with LPS-induced IRF reporter activity. The data set is described as follows: IRF assay, THP-1 dual reporter cell line (Lucia luciferase) stimulated with LPS. Type of data set: cell-based. On the procedure: Compounds described herein are added to mammalian cells for bioactivity assessment. The THP-1 dual reporter cell line (InVivoGen) secretes a reporter protein (Lucia luciferase or LUC) in response to activation by the pro-inflammatory bacterial component lipopolysaccharide (LPS). THP-1 dual reporter cells were grown in RPMI 1640 culture medium with 2 mM L-glutamine, 25 mM HEPES, 10% heat-inactivated fetal bovine serum, 100 µg/ml Normocin antibiotic (InvivoGen), Pen-Strep antibiotic (100 U/ml-100 […], InvivoGen). On the day of the assay, cells were seeded in a 96 flat-bottom well plate at 50,000 cells/well and incubated for 2 hours. Cells were then incubated with 1 μM or 10 μM of the compounds described herein or with 1 μM of KK-16 (Selleck), a potent inhibitor of IκB kinases (IKKs) or with DMSO (vehicle control) for 2 hours, followed by the addition of LPS at 25 ng/mL and incubation for 24 hours. After incubation was concluded, the cultures supernatants were collected and IRF related activity was assessed by measurement of the Lucia luciferase, using Quanti-Luc assay (InvivoGen) and these values were adjusted by the Cell Viability levels that was assessed using the Cell-Titer-Glo2 Reagent (Promega).

Data set [3] concerns LPS-stimulated monocyte-derived dendritic cells. The data set can be described thus: MoDC assay, LPS-stimulated pro-inflammatory cytokines. Type of data set: cell-based, human.
The test system of data set [4] is Zymosan-induced production of IL-12p40 in monocyte-derived dendritic cells. The data set is described as follows: Monocyte derived DC (MoDC) assay, Zymosan-induced IL-12p40 (Luminex/ELISA). Type of data set: cell-based, human. The conditions noted are these: for inhibition of Zymosan-induced production of IL-12p40: MoDC from healthy human donors 1, 2 and 3, 15.5 nM to 1 μM (FIGS. 6A-6C); for concentration of maximal inhibition of Zymosan-induced IL-12p40: donors 1, 2 and 3, the highest concentration tested.
Source text: as §1
On the technique in general: ELISA stands for enzyme-linked immunosorbent assay.

Data set [5] is described as follows: Compound interconversion monitored by 1H-NMR in neutral aqueous buffer. Type of data set: physicochemical. The conditions noted are these: 37° C. in the neutral aqueous buffer. The method, then: This examples provide the kinetics of compounds A-2 and A-3. More specifically, A-6 is a mixture of compounds A-2 and A-3 and interconvert in solutions.
In this example, A-6 was combined with […] of Na3PO4, DCl, and D2O at a pH of 7-7.5. This solution was then monitored using 1H-NMR at 37° C.
Interconversion between compounds A-2 and A-3 was seen and monitored for 5 days. See, Table 1.

Entries after “also recorded” stand apart in the source; their conditions may differ. A value given as a limit tells only on which side of the number the result lay.

As to `CN1C([C@@H]2CSC(c3ccccc3O)=N2)SC[C@@H]1C(=O)O` (stereo partly drawn) [Compound A6, (4S)-2-((S)-2-(2-hydroxyphenyl)-4,5-dihydrothiazol-4-yl)-3-methylthiazolidine-4-carboxylic acid], in data set [1] (healthy human donor 14), the Gro-α result was “statistically significant decrease”, the IL-6 result is on record as “statistically significant decrease”, the IL-12p70 result was “statistically significant decrease” and the IL-23 entry is on record as “statistically significant decrease”. In data set [1] (healthy human donor 14), the IP-10 result was “statistically significant decrease”, the MCP-1 entry is recorded as “statistically significant decrease”, the Mip-1α entry was “statistically significant decrease” and the TNFα entry is “statistically significant decrease”. For the same compound, in data set [1] (healthy human donor 14 (FIGS. 10A-10H)), the “inhibition of pro-inflammatory cytokines (overall)” value was “inhibit several pro-inflammatory cytokines; also recorded: inhibition of pro-inflammatory cytokines”. For the same compound, on Dectin-1b (HEK-Dectin-1b cells, range from 1 μM to 30 μM), the “inhibition of BGP-induced Dectin-1b reporter gene activity / signaling” value is “dose-dependent inhibition”. For the same compound, the “concentration of maximal inhibition of BGP-induced Dectin-1b activity” value at Dectin-1b (range 1 μM to 30 μM, the maximum concentration tested) came out at 30 µM. Moreover, the “inhibition of LPS-induced IRF reporter activity” value in data set [2] (THP-1 dual reporter cells, LPS 25 ng/mL, compounds at 1 μM or 10 μM) was “shows inhibition of LPS-induced IRF reporter activity”. In addition, the “statistical significance of inhibition of LPS-induced IRF reporter activity” value in data set [2] (tested at 1 μM (FIG. 8B)) was “meets statistical significance”. Further, in data set [3] (healthy human donor 14), the Gro-α result is reported as “statistically significant decrease”, the IL-6 entry is recorded as “statistically significant decrease”, the IL-12p70 result is “statistically significant decrease” and the IL-23 entry is on record as “statistically significant decrease”. For the same compound, in data set [3] (healthy human donor 14), the IP-10 result is recorded as “statistically significant decrease”, the MCP-1 result was “statistically significant decrease”, the Mip-1α entry is reported as “statistically significant decrease” and the TNFα result is on record as “statistically significant decrease”. Moreover, the “inhibition of pro-inflammatory cytokines (overall)” value in data set [3] (healthy human donor 14 (FIGS. 9A-9H)) is “inhibit several pro-inflammatory cytokines; also recorded: inhibition of pro-inflammatory cytokines”.
Compound `CN1[C@@H](C(=O)O)CS[C@H]1[C@@H]1CSC(c2ccccc2O)=N1` (single isomer, unassigned) [Compound A-3] came in with an Activity on Dectin-1b below 30 µM. In data set [4], the “inhibition of Zymosan-induced production of IL-12p40” value is listed as “inhibition” and the “concentration of maximal inhibition of Zymosan-induced IL-12p40” value worked out at 1 µM. Moreover, in data set [4] (primary human MoDC from healthy donors 5 and 6, 0.5 μM final concentration (FIGS. 11A, 11B)), the “inhibition of zymosan-induced IL-12p40” value is “does not achieve statistically significant inhibition”. Besides, in data set [5], the “equilibrium ratio of interconversion” value is on record as “about 1.5/1” and the “time to nearly reach interconversion equilibrium” value was “about 7 hours”.
On to `CN1[C@@H](C(=O)O)CS[C@@H]1[C@@H]1CSC(c2ccccc2O)=N1` (single isomer, unassigned) [Compound A-2], for which, at Dectin-1b, the Activity is below 30 µM. In addition, in data set [4], the “inhibition of Zymosan-induced production of IL-12p40” value was “inhibition” and the “concentration of maximal inhibition of Zymosan-induced IL-12p40” value is 1 µM. Further, the “time to nearly reach interconversion equilibrium” value in data set [5] was “about 3 hours”.
